This note sets out measurements from patent US20060276464A1, “Diarylsulfone sulfonamides and use thereof” (Wyeth, priority 2005, published 2006).

The target in the assay is T1, SFRP-1 (Homo sapiens, UniProt Q8N474).
T1 sequence (Q8N474 32-314): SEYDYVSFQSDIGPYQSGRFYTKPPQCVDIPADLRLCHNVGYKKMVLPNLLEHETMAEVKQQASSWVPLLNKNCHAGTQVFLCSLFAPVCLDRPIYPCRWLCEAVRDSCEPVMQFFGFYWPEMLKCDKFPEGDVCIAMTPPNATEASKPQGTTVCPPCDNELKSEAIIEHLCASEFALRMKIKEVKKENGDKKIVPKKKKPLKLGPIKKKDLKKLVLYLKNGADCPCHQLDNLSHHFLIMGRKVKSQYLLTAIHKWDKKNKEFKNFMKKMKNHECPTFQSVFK
The assay is described as follows: Cell-based assay for in vitro measurement of SFRP-1/SARP2 antagonist activity (U2OS cells co-transfected with 16x TCF-tk-Luciferase reporter, Wnt and hSFRP-1).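 As to all read-outs here: U2OS cells co-transfected with a TCF-tk luciferase reporter, a Wnt vector, hSFRP-1 or empty vector and CMV-βgal, luciferase luminescence read in cell lysates alongside βgal activity.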 The note with it: U2OS; for fold induction at 15 µM: single dose, luciferase reporter. (A reporter such as luciferase makes a cellular process visible.)

[1] abbreviates: read-out: Fold Induction with SFRP-1, Conc 15 μM, fold induction over SFRP-1 control, cells with SFRP-1.
[2] abbreviates: read-out: Fold Induction without SFRP-1, Conc 15 μM, cells without SFRP-1 (specificity control).

Read-outs that look alike come from different tables or passages of the source.

In the case of `Cc1c(S(=O)(=O)NCCN2CCOCC2)cccc1S(=O)(=O)c1ccccc1` [Example 495, 2-methyl-N-(2-morpholin-4-ylethyl)-3-(phenylsulfonyl)benzenesulfonamide], the fold induction at 15 µM by setting is: under setting [1], 1.1; under setting [2], 1.3. For `Cc1ccc(S(=O)(=O)c2ccccc2)cc1S(=O)(=O)NC1CCN(C(=O)Oc2ccc(F)cc2)CC1` [Example 500, 4-fluorophenyl 4-({[2-methyl-5-(phenylsulfonyl)phenyl]sulfonyl}amino)piperidine-1-carboxylate], the fold induction at 15 µM was 1.6 under setting [1] and 0.8 under setting [2].

`CC(C)c1ccc(S(=O)(=O)c2ccc3c(c2)C(C)(C)OC(=O)N3)cc1S(=O)(=O)NCCc1ccccn1` [Example 515, 5-[(4,4-dimethyl-2-oxo-1,4-dihydro-2H-3,1-benzoxazin-6-yl)sulfonyl]-2-isopropyl-N-(2-pyridin-2-ylethyl)benzenesulfonamide]: the fold induction at 15 µM reads like this: under setting [1], 1.8; under setting [2], 1. As to `CC(C)c1ccc(S(=O)(=O)c2ccc(F)cc2)cc1S(=O)(=O)NC1CC1` [Example 521, N-cyclopropyl-5-[(4-fluorophenyl)sulfonyl]-2-isopropylbenzenesulfonamide], the fold induction at 15 µM runs as follows: under setting [1], 1.7; under setting [2], 1. In the case of `CC(C)c1ccc(S(=O)(=O)c2ccc(F)cc2)cc1S(=O)(=O)NC1CCC1` [Example 522, N-cyclobutyl-5-[(4-fluorophenyl)sulfonyl]-2-isopropylbenzenesulfonamide], the fold induction at 15 µM is, setting by setting: under setting [1], 1.4; under setting [2], 0.9. For `CC(C)c1ccc(S(=O)(=O)c2ccc(F)cc2)cc1S(=O)(=O)NC1CCCCC1` [Example 524, N-cyclohexyl-5-[(4-fluorophenyl)sulfonyl]-2-isopropylbenzenesulfonamide], the fold induction at 15 µM by setting is: under setting [1], 1.4; under setting [2], 1. On the same counts, the results for `CC(C)c1ccc(S(=O)(=O)c2ccc(F)cc2)cc1S(=O)(=O)NCCN1CCCCC1` [Example 527, 5-[(4-fluorophenyl)sulfonyl]-2-isopropyl-N-(2-piperidin-1-ylethyl)benzenesulfonamide] are 2.3 and 1.2. Turning to `CC(C)c1ccc(S(=O)(=O)c2ccc(F)cc2)cc1S(=O)(=O)NC1CCN(C(=S)Nc2ccc3c(c2)C(=O)OC32c3ccc(O)cc3Oc3cc(O)ccc32)CC1` [Example 538, N-(3′,6′-dihydroxy-3-oxo-3H-spiro[2-benzofuran-1,9′-xanthen]-5-yl)-4-[({5-[(4-fluorophenyl)sulfonyl]-2-isopropylphenyl}sulfonyl)amino]piperidine-1-carbothioamide], the fold induction at 15 µM is, setting by setting: under setting [1], 2.4; under setting [2], 1.1.

As for `CCCc1ccc(S(=O)(=O)c2ccccc2)cc1S(N)(=O)=O` [Example 557, 5-(Phenylsulfonyl)-2-propylbenzenesulfonamide], the fold induction at 15 µM is, setting by setting: under setting [1], 1.4; under setting [2], 1.2. Turning to `CCCc1ccc(S(=O)(=O)c2ccc(F)cc2)cc1S(N)(=O)=O` [Example 566, 5-[(4-Fluorophenyl)sulfonyl]-2-propylbenzenesulfonamide], the fold induction at 15 µM under setting [1] was 1.5 and the fold induction at 15 µM under setting [2] is 1.3. For `Cc1ccc(S(=O)(=O)c2ccc(F)cc2)cc1S(=O)(=O)NC1CCNCC1` [Example 576, 5-[(4-fluorophenyl)sulfonyl]-2-methyl-N-piperidin-4-ylbenzenesulfonamide], the fold induction at 15 µM under setting [1] turned out to be 3 and the fold induction at 15 µM under setting [2] amounted to 1.2. Take `CC(C)c1ccc(S(=O)(=O)c2ccc(F)cc2)cc1S(=O)(=O)NCCO` [Example 582, 5-[(4-fluorophenyl)sulfonyl]-N-(2-hydroxyethyl)-2-isopropylbenzenesulfonamide]: the fold induction at 15 µM under setting [1] turned out to be 2.6 and the fold induction at 15 µM under setting [2] is 1. As for `CN(C)c1ccc(S(=O)(=O)c2ccccc2)cc1S(=O)(=O)NCCc1ccccn1` [Example 601, 2-(dimethylamino)-5-(phenylsulfonyl)-N-(2-pyridin-2-ylethyl)benzenesulfonamide], the fold induction at 15 µM under setting [1] is 2 and the fold induction at 15 µM under setting [2] was determined as 0.9.

As for `Cc1ccc(S(=O)(=O)c2ccc(F)cc2)cc1S(=O)(=O)N(C(=O)C1CC1)C1CCN(C(=O)C2CC2)CC1` [Example 602, N-[1-(cyclopropylcarbonyl)piperidin-4-yl]-N-({5-[(4-fluorophenyl)sulfonyl]-2-methylphenyl}sulfonyl)cyclopropanecarboxamide], the fold induction at 15 µM by setting is: under setting [1], 1.3; under setting [2], 1.1.

For `O=S(=O)(NC1CCOCC1)c1cc(S(=O)(=O)c2ccc(F)cc2)ccc1Cl` [Example 622, 2-chloro-5-[(4-fluorophenyl)sulfonyl]-N-(tetrahydro-2H-pyran-4-yl)benzenesulfonamide], the fold induction at 15 µM came out at 2.7 under setting [1] and 1.1 under setting [2]. For the compound `CC(C)(C)OC(=O)N1CCC(NS(=O)(=O)c2cc(S(=O)(=O)c3ccccc3)ccc2Cl)CC1` [Example 623, tert-butyl 4-({[2-chloro-5-(phenylsulfonyl)phenyl]sulfonyl}amino)piperidine-1-carboxylate], the fold induction at 15 µM by setting is: under setting [1], 2.2; under setting [2], 1.1.

With `O=S(=O)(NC1CCNCC1)c1cc(S(=O)(=O)c2ccccc2)ccc1Cl` [Example 624, 2-chloro-5-(phenylsulfonyl)-N-piperidin-4-ylbenzenesulfonamide], the fold induction at 15 µM by setting is: under setting [1], 2.7; under setting [2], 1.2. Take `O=S(=O)(c1ccccc1)c1ccc(Cl)c(S(=O)(=O)N2CCC(N3CCCC3)CC2)c1` [Example 635, 1-{[2-chloro-5-(phenylsulfonyl)phenyl]sulfonyl}-4-pyrrolidin-1-ylpiperidine]: the fold induction at 15 µM runs as follows: under setting [1], 2; under setting [2], 1.7. With `O=S(=O)(c1ccccc1)c1ccc(Cl)c(S(=O)(=O)N2CCN(CCN3CCOCC3)CC2)c1` [Example 636, 4-[2-(4-{[2-chloro-5-(phenylsulfonyl)phenyl]sulfonyl}piperazin-1-yl)ethyl]morpholine], the fold induction at 15 µM by setting is: under setting [1], 1.7; under setting [2], 1.1. For `O=S(=O)(c1ccccc1)c1ccc(Cl)c(S(=O)(=O)N2CCN(Cc3ccc4c(c3)OCO4)CC2)c1` [Example 637, 1-(1,3-benzodioxol-5-ylmethyl)-4-{[2-chloro-5-(phenylsulfonyl)phenyl]sulfonyl}piperazine], the fold induction at 15 µM was found to be 0.9 under setting [1] and 1 under setting [2]. For `CC(C)(C)OC(=O)NC1CCN(S(=O)(=O)c2cc(S(=O)(=O)c3ccccc3)ccc2Cl)C1` (stereo not drawn) [Example 638, tert-butyl(1-{[2-chloro-5-(phenylsulfonyl)phenyl]sulfonyl}pyrrolidin-3-yl)carbamate], the fold induction at 15 µM is, setting by setting: under setting [1], 1.2; under setting [2], 1.1. Take `CC(C)(C)OC(=O)NC1CCN(S(=O)(=O)c2cc(S(=O)(=O)c3ccccc3)ccc2Cl)CC1` [Example 639, tert-butyl(1-{[2-chloro-5-(phenylsulfonyl)phenyl]sulfonyl}piperidin-4-yl)carbamate]: the fold induction at 15 µM reads like this: under setting [1], 0.9; under setting [2], 1. In the case of `CN1CCN(CCCNS(=O)(=O)c2cc(S(=O)(=O)c3ccccc3)ccc2Cl)CC1` [Example 642, 2-chloro-N-[3-(4-methylpiperazin-1-yl)propyl]-5-(phenylsulfonyl)benzenesulfonamide], the fold induction at 15 µM under setting [1] is 2.2 and the fold induction at 15 µM under setting [2] was 1.1. Take `CCN(CC)C1CCN(S(=O)(=O)c2cc(S(=O)(=O)c3ccccc3)ccc2Cl)C1` (stereo not drawn) [Example 644, 1-{[2-chloro-5-(phenylsulfonyl)phenyl]sulfonyl}-N,N-diethylpyrrolidin-3-amine]: the fold induction at 15 µM under setting [1] is 1.3 and the fold induction at 15 µM under setting [2] stood at 1.1. `CCOC(=O)C1CCCN(S(=O)(=O)c2cc(S(=O)(=O)c3ccccc3)ccc2Cl)C1` (stereo not drawn) [Example 645, ethyl 1-{[2-chloro-5-(phenylsulfonyl)phenyl]sulfonyl}piperidine-3-carboxylate]: the fold induction at 15 µM is 1 under setting [1] and 1.1 under setting [2]. As to `CN(CCc1ccccn1)S(=O)(=O)c1cc(S(=O)(=O)c2ccccc2)ccc1Cl` [Example 646, 2-chloro-N-methyl-5-(phenylsulfonyl)-N-(2-pyridin-2-ylethyl)benzenesulfonamide], the fold induction at 15 µM stood at 1 under setting [1] and 1.1 under setting [2]. As to `Cc1ccc(C)n1CC1CCN(S(=O)(=O)c2cc(S(=O)(=O)c3ccccc3)ccc2Cl)CC1` [Example 653, 1-{[2-chloro-5-(phenylsulfonyl)phenyl]sulfonyl}-4-[(2,5-dimethyl-1H-pyrrol-1-yl)methyl]piperidine], the fold induction at 15 µM under setting [1] is 1 and the fold induction at 15 µM under setting [2] was found to be 1.

Regarding `COC(=O)C(C)(C)NS(=O)(=O)c1cc(S(=O)(=O)c2ccccc2)ccc1Cl` [Example 654, methyl N-{[2-chloro-5-(phenylsulfonyl)phenyl]sulfonyl}-2-methylalaninate], the fold induction at 15 µM under setting [1] is 1 and the fold induction at 15 µM under setting [2] was 1. With `CC(C)(CO)NS(=O)(=O)c1cc(S(=O)(=O)c2ccccc2)ccc1Cl` [Example 655, 2-chloro-N-(2-hydroxy-1,1-dimethylethyl)-5-(phenylsulfonyl)benzenesulfonamide], the fold induction at 10 µM (read-out: Fold Induction with SFRP-1, U2OS cells, single dose 10 μM, luciferase reporter, fold induction over SFRP-1 control) was 1.1.
